# Source: patent US20090233931A1, “THERAPEUTIC COMPOUNDS” (priority 2008, published 2009)
# Tested on: lashes and adjacent hairs of glaucoma patients
# Test: Eyelash/hair growth observed in glaucoma patients treated in one eye
# Assay type: in vivo, humans
# Details: glaucoma patient treated in one eye only
# From the text: In the course of treating patients having glaucoma, treatment may only be appropriate in one eye. […] The lash appearance on the lids of the treated eyes would have appeared quite attractive if it represented a bilateral phenomenon. As a result of its asymmetric nature, the long lashes on one side could be construed as disturbing from a cosmetic standpoint. A systemic examination was preformed as a result of the asymmetric phenomenon. It soon became apparent that this altered appearance was not an isolated finding. […] Definite differences could be identified to varying degrees in the lashes and adjacent hairs of all patients who were taking the drug on a unilateral basis for longer than 6 months.
# The changes in the lashes were apparent on gross inspection in several patients once attention was focused on the issue. In those with light colored hair and lashes, the differences were only seen easily with the aid of the high magnification and lighting capabilities of the slit lamp biomicroscope. In the course of glaucoma follow-up examination, attention is generally immediately focused on the eye itself. As a result of the high power magnification needed only one eye is seen at a time and the eye is seen at a high enough power that the lashes are not in focus. […]
compound,measurement,value
CCNC(=O)CCC/C=C\C[C@@H]1[C@@H](/C=C/[C@@H](O)CCc2ccccc2)[C@H](O)C[C@@H]1O [bimatoprost],lash appearance in treated eye versus non-treated eye,"longer, thicker, and fuller"
